According to the supplement of paper PMC11061612:

Columns and labels:
Experiment in all cases: Bliss excess, mean over the matrix (fraction); higher = more synergy
[1] = tested on: NCI-H650 (Lung Adenocarcinoma)
Procedure, shortened: (§1)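 Cell lines in DMEM/F12 or RPMI with 10% FBS were plated in 1536-well plates, held 24 hours at 37°C, 5% CO2, then given two-drug dose matrices for 72 hours (DMSO typically 0.2%). Viability was read by CellTiter-Glo 2.0 luminescence and scaled as inhibition from 0 (vehicle wells) to 1 (blank wells). Combination Emax is the second-highest inhibition in the matrix; Bliss excess is observed combination effect minus expected EA + EB − EA·EB, EA and EB being single-agent effects.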

[2] = tested on: HCC1937 (Breast Carcinoma)
Procedure, shortened: as §1

[3] = tested on: SW982 (Other Solid Carcinomas)
Procedure, shortened: as §1

[4] = tested on: Ca-Ski (Cervical Carcinoma)
Procedure, shortened: as §1

[5] = tested on: MV-4-11 (Acute Myeloid Leukemia)
Procedure, shortened: as §1

[6] = tested on: MOLT-4 (T-Lymphoblastic Leukemia)
Procedure, shortened: as §1

COLO-679 (Melanoma) = tested on: COLO-679 (Melanoma)
Procedure, shortened: as §1

[7] = tested on: G-401 (Other Solid Carcinomas)
Procedure, shortened: as §1

[8] = tested on: ML-2 (Acute Myeloid Leukemia)
Procedure, shortened: as §1

[9] = tested on: SK-LU-1 (Lung Adenocarcinoma)
Procedure, shortened: as §1

[10] = tested on: ALL-SIL (T-Lymphoblastic Leukemia)
Procedure, shortened: as §1

[11] = tested on: NCI-H2122 (Lung Adenocarcinoma)
Procedure, shortened: as §1

[12] = tested on: NCI-H1092 (Small Cell Lung Carcinoma)
Procedure, shortened: as §1

[13] = tested on: OACM5-1 (Esophageal Adenocarcinoma)
Procedure, shortened: as §1

[14] = tested on: ME-180 (Cervical Carcinoma)
Procedure, shortened: as §1

[15] = tested on: SW872 (Other Solid Carcinomas)
Procedure, shortened: as §1

[16] = tested on: NCI-H1838 (Lung Adenocarcinoma)
Procedure, shortened: as §1

[17] = tested on: MOG-G-UVW (Low Grade Glioma)
Procedure, shortened: as §1

[18] = tested on: LC-1-sq (Squamous Cell Lung Carcinoma)
Procedure, shortened: as §1

[19] = tested on: DU-145 (Prostate Carcinoma)
Procedure, shortened: as §1

Work on `Cc1c2c(nn1C)CSCc1cc(n(C)n1)CSc1cc(c3ccccc3c1)OCCCc1c(C(=O)O)n(C)c3c-2c(Cl)ccc13` [AZD5991] + CC1(C)CCC(CN2CCN(c3ccc(C(=O)NS(=O)(=O)c4ccc(NCC5CCOCC5)c([N+](=O)[O-])c4)c(Oc4cnc5[nH]ccc5c4)c3)CC2)=C(c2ccc(Cl)cc2)C1 [Venetoclax] (first compound max 1 µM, 7x7, partner max 1 µM) yielded a Bliss excess [1] of -0.0014, a Bliss excess [2] of -0.0208 and a Bliss excess [3] of -0.0312. For the same compound, the Bliss excess [4] was 0.0006, the Bliss excess [5] was 0.0591 and the Bliss excess [6] was 0.124. For the same compound, the Bliss excess (COLO-679 (Melanoma)) was -0.0218, the Bliss excess [7] was 0.0446 and the Bliss excess [8] was 0.16. For the same compound, the Bliss excess [9] was -0.0368, the Bliss excess [10] was 0.0333 and the Bliss excess [11] was 0.0016. For the same compound, the Bliss excess [12] was 0.117, the Bliss excess [13] was 0.0228 and the Bliss excess [14] was 0.0131. It also gave a Bliss excess [15] of -0.0443, a Bliss excess [16] of 0.0125 and a Bliss excess [17] of 0.0083. For the same compound, the Bliss excess [18] was 0.0184 and the Bliss excess [19] was -0.0185.
Compound `NC1(C(=O)N[C@@H](CCO)c2ccc(Cl)cc2)CCN(c2ncnc3[nH]ccc23)CC1` [Capivasertib] + C[C@@H]1COCCN1C2=NC(=NC(=C2)C3(CC3)[S@](=N)(=O)C)C4=C5C=CNC5=NC=C4 [AZD6738] (first compound max 10 µM, 7x7, partner max 10 µM) has a Bliss excess [1] of -0.0441, a Bliss excess [2] of -0.0142 and a Bliss excess [3] of -0.0382. For the same compound, the Bliss excess [4] was 0.0076, the Bliss excess [5] was -0.0546 and the Bliss excess [6] was 0.0011. It also gave a Bliss excess (COLO-679 (Melanoma)) of -0.128, a Bliss excess [7] of -0.0856 and a Bliss excess [8] of -0.0241. For the same compound, the Bliss excess [9] was -0.0162, the Bliss excess [10] was -0.0322 and the Bliss excess [11] was -0.0658. For the same compound, the Bliss excess [12] was -0.0055, the Bliss excess [13] was 0.0338 and the Bliss excess [14] was -0.066. The Bliss excess [15] was -0.0244, the Bliss excess [16] was -0.0733 and the Bliss excess [17] was -0.0348. It also gave a Bliss excess [18] of -0.0984 and a Bliss excess [19] of -0.0128.
For `CCN(CCO)CCCOc1ccc2c(Nc3cc(CC(=O)Nc4cccc(F)c4)[nH]n3)ncnc2c1` [AZD2811] + C[C@@H]1COCCN1C2=NC(=NC(=C2)C3(CC3)[S@](=N)(=O)C)C4=C5C=CNC5=NC=C4 [AZD6738] (first compound max 1 µM, 7x7, partner max 10 µM), the Bliss excess [1] was -0.0422, the Bliss excess [2] was -0.0972 and the Bliss excess [3] was -0.0585. It also gave a Bliss excess [4] of -0.0273, a Bliss excess [5] of -0.0118 and a Bliss excess [6] of -0.0208. The Bliss excess (COLO-679 (Melanoma)) was -0.103, the Bliss excess [7] was -0.0518 and the Bliss excess [8] was -0.0428. The Bliss excess [9] was -0.0586, the Bliss excess [10] was -0.0499 and the Bliss excess [11] was -0.0436. For the same compound, the Bliss excess [12] was -0.0308, the Bliss excess [13] was -0.0628 and the Bliss excess [14] was -0.0385. The Bliss excess [15] was -0.0219, the Bliss excess [16] was -0.0107 and the Bliss excess [17] was -0.0581. It also gave a Bliss excess [18] of -0.0239 and a Bliss excess [19] of -0.0535.
`CCN(CCO)CCCOc1ccc2c(Nc3cc(CC(=O)Nc4cccc(F)c4)[nH]n3)ncnc2c1` [AZD2811] + O=C(c1cc(Cc2n[nH]c(=O)c3ccccc23)ccc1F)N1CCN(C(=O)C2CC2)CC1 [Olaparib] (first compound max 1 µM, 7x7, partner max 10 µM) was tested, and the Bliss excess [1] was -0.003, the Bliss excess [2] was -0.0059 and the Bliss excess [3] was -0.0365. For the same compound, the Bliss excess [4] was 0.0242, the Bliss excess [5] was -0.0339 and the Bliss excess [6] was -0.0029. It also gave a Bliss excess (COLO-679 (Melanoma)) of -0.0569, a Bliss excess [7] of 0.0174 and a Bliss excess [8] of -0.0595. The Bliss excess [9] was -0.0373, the Bliss excess [10] was -0.0525 and the Bliss excess [11] was 0.0155. The Bliss excess [12] was -0.0196, the Bliss excess [13] was 0.0082 and the Bliss excess [14] was -0.0208. It also gave a Bliss excess [15] of 0.017, a Bliss excess [16] of -0.0348 and a Bliss excess [17] of -0.0088. The Bliss excess [18] was 0.0434 and the Bliss excess [19] was -0.0105.
`NC1(C(=O)N[C@@H](CCO)c2ccc(Cl)cc2)CCN(c2ncnc3[nH]ccc23)CC1` [Capivasertib] + Cn1cnc2c(F)c(Nc3ccc(Br)cc3Cl)c(C(=O)NOCCO)cc21 [Selumetinib] (first compound max 10 µM, 7x7, partner max 10 µM) showed a Bliss excess [1] of -0.0368, a Bliss excess [2] of -0.0079 and a Bliss excess [3] of 0.0235. For the same compound, the Bliss excess [4] was 0.0246, the Bliss excess [5] was 0.0842 and the Bliss excess [6] was 0.0752. It also gave a Bliss excess (COLO-679 (Melanoma)) of -0.0912, a Bliss excess [7] of 0.0695 and a Bliss excess [8] of 0.0654. For the same compound, the Bliss excess [9] was -0.0486, the Bliss excess [10] was 0.0381 and the Bliss excess [11] was 0.0107. It also gave a Bliss excess [12] of -0.0225, a Bliss excess [13] of 0.0183 and a Bliss excess [14] of -0.0232. It also gave a Bliss excess [15] of 0.0256, a Bliss excess [16] of -0.0124 and a Bliss excess [17] of 0.0622. It also gave a Bliss excess [18] of 0.0027 and a Bliss excess [19] of 0.0037.
`COc1nnc2ccc(N3CCC(c4ccc(OCCN5CCN(C)C(=O)[C@H]5C)cc4)CC3)nn12` [AZD5153] + CCN(CCO)CCCOc1ccc2c(Nc3cc(CC(=O)Nc4cccc(F)c4)[nH]n3)ncnc2c1 [AZD2811] (first compound max 1 µM, 7x7, partner max 1 µM) was tested, and the Bliss excess [1] was 0.0112, the Bliss excess [2] was -0.0581 and the Bliss excess [3] was -0.0857. The Bliss excess [4] was -0.0238, the Bliss excess [5] was -0.0185 and the Bliss excess [6] was 0.0277. For the same compound, the Bliss excess (COLO-679 (Melanoma)) was -0.0181, the Bliss excess [7] was -0.0625 and the Bliss excess [8] was -0.0355. It also gave a Bliss excess [9] of -0.0549, a Bliss excess [10] of 0.0139 and a Bliss excess [11] of -0.08. For the same compound, the Bliss excess [12] was 0.0499, the Bliss excess [13] was 0.0367 and the Bliss excess [14] was -0.0644. It also gave a Bliss excess [15] of -0.0335, a Bliss excess [16] of -0.0282 and a Bliss excess [17] of -0.0313. It also gave a Bliss excess [18] of -0.0282 and a Bliss excess [19] of -0.0241.
With `NC1(C(=O)N[C@@H](CCO)c2ccc(Cl)cc2)CCN(c2ncnc3[nH]ccc23)CC1` [Capivasertib] + CC(C)n1c(=O)n(C)c2cnc3cc(F)c(-c4ccc(OCCCN5CCCCC5)nc4)cc3c21 [AZD1390] (first compound max 10 µM, 7x7, partner max 0.3 µM) the Bliss excess [1] was -0.0899, the Bliss excess [2] was -0.0666 and the Bliss excess [3] was -0.0696. The Bliss excess [4] was -0.0436, the Bliss excess [5] was -0.0393 and the Bliss excess [6] was -0.0083. The Bliss excess (COLO-679 (Melanoma)) was -0.116, the Bliss excess [7] was -0.0346 and the Bliss excess [8] was -0.0296. It also gave a Bliss excess [9] of -0.0747, a Bliss excess [10] of -0.0482 and a Bliss excess [11] of -0.0103. It also gave a Bliss excess [12] of -0.0596, a Bliss excess [13] of -0.0676 and a Bliss excess [14] of -0.033. For the same compound, the Bliss excess [15] was -0.0562, the Bliss excess [16] was -0.123 and the Bliss excess [17] was -0.0278. For the same compound, the Bliss excess [18] was -0.0461 and the Bliss excess [19] was -0.0598.
